Results as given in PMC3929320 (Journal of medicinal chemistry, 2010).

How the values were obtained:
[1] = molecular target: T1, human kynurenine aminotransferase II (hKAT II) (Homo sapiens, UniProt Q8N5Z0); test: X-ray crystal structure at […] Å; assay type: biochemical
Target sequence in this assay (Q8N5Z0 2-425): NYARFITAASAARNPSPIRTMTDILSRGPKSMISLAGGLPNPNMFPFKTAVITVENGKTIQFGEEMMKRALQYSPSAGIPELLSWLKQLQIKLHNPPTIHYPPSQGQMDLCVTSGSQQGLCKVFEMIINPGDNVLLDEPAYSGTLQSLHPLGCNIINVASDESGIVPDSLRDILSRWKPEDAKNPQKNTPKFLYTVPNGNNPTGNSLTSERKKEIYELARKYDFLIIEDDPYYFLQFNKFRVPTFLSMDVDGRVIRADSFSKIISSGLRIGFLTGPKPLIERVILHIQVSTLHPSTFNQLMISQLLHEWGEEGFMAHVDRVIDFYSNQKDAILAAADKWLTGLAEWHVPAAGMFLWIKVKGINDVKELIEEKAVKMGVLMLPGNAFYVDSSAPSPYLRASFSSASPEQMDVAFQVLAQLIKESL

[2] = molecular target: T1, human kynurenine aminotransferase II (hKAT II); test: recombinant enzyme assay, L-KYN to KYNA conversion by HPLC; assay type: biochemical
Target sequence in this assay (Q8N5Z0 whole entry): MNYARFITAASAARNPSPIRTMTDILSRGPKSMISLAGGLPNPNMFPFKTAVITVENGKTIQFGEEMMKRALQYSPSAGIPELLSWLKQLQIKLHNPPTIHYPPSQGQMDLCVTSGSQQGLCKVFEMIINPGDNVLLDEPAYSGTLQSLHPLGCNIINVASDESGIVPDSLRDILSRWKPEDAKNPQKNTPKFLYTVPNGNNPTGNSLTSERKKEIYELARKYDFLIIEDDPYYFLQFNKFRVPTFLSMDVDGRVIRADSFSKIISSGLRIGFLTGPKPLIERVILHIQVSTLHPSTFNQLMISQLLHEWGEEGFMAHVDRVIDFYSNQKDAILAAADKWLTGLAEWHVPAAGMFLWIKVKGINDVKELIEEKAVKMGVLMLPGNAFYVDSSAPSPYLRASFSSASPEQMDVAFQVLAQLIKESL

| IC50 [1] | IC50 [2] | Structure (SMILES) |
| --- | --- | --- |
| 0.91 and 1.5 (two enantiomers) μM | – | C[C@H]1COc2c(N3CCN(N)CC3)c(F)cc3c(=O)c(C(=O)O)cn1c23 [compound 1, (S)-(−)-9-(4-aminopiperazin-1-yl)-8-fluoro-3-methyl-6-oxo-2,3-dihydro-6H-1-oxa-3a-azaphenalene-5-carboxylic acid] |
| – | 0.91 and 1.5 (two enantiomers) μM | C[C@@H]1COc2c(N3CCN(N)CC3)c(F)cc3c(=O)c(C(=O)O)cn1c23 [1*, 1* (stereoisomer of BFF-122)] |
